The values below come from patent US10154667B2, “Broadleaf crop control with 6-arylpicoline carboxylic acids, 2-arylpyrimidine carboxylic acids, or salts or esters thereof” (Dow AgroSciences LLC, priority 2013, dated 2018).

Assay type in all cases: in vivo, Glycine max
The test system of assay [1] is ROUNDUP READY soybeans (GLXMA). Kind of assay: Field evaluation with various herbicides, 46 days after treatment. The following applies: for % Crop Control: 46 Days After Treatment. The text has this:
The average percent visual control of ROUNDUP READY® soybeans (GLXMA) 46 days after treatment with various herbicides with standard formulation in comparison with compound of Formula (IV) at specified rates are provided in Table 6 below. The data was the result of conducting factorial replicated field trials (4 trials) by applying the compositions at a spray pressure of 300 kPa and a spray volume of 200 L/ha. The treated plots and control plots were visually rated blind at the specified dates after application. Ratings were based on a scale of 0-100%, as discussed above, wherein 0% indicates complete growth of the undesired vegetation and 100% indicates complete prevention/eradication of the undesired vegetation.

Assay [2] relates to ROUNDUP READY soybeans (GLXMA). Nature of the assay: Field evaluation with various herbicides, 30 days after treatment. The following applies: 30 Days After Treatment. The text has this: The data was the result of conducting factorial replicated field trials (3 trials) by applying the compositions at a spray pressure of 300 kPa and a spray volume of 200 L/ha. The treated plots and control plots were visually rated blind at the specified dates after application. Ratings were based on a scale of 0-100%, as discussed above, wherein 0% indicates complete growth of the undesired vegetation and 100% indicates complete prevention/eradication of the undesired vegetation.

Assay [3] has as its system Resnick GLXMA (conventional soybean). Kind of assay: Greenhouse evaluation of broadleaf volunteer crop control, Resnick soybean. The following applies: 2 to 3 leaf stage, after 21 days, 0 no injury, 100 complete kill. How it is done:
(§1) Test plants were grown in METRO-MIX® 360 (SunGro Horticulture, Bellevue, Wash.) in 132.7 square centimeters (cm^2) plastic pots for 7-21 days in a greenhouse with an approximate 15 hour (h) photoperiod which was maintained at about 23-29° C. during the day and 22-28° C. during the night. Plants were grown to the 2 to 3 leaf stage prior to applications. Both conventional soybean crops varieties, Maverick and Resnick, and herbicide resistant (HT) varieties AAD12, AAD1, and ROUNDUP® ready soybean crops were treated.
(§2) A weighed amount, determined by the highest rate to be tested, of each test compound was placed in a 25 milliliter (mL) glass vial and was dissolved in 4 mL of a 97:3 v/v (volume/volume) mixture of acetone and dimethyl sulfoxide (DMSO), which will be referred to as General Purpose Solvent (GPS), to obtain concentrated stock solutions. […] The concentrated stock solutions obtained were diluted with 20 mL of an aqueous mixture containing water, GPS, isopropyl alcohol, ATPLUS® 411F crop oil concentrate, and TRITON® X-155 surfactant in a 46:42:12:1.0:0.02 v/v ratio to obtain spray solutions containing the highest application rates. Additional application rates were obtained by serial dilution of 12 mL of the high rate solution into a solution containing 2 mL of 97:3 v/v (volume/volume) mixture of acetone and dimethyl sulfoxide (DMSO) and 10 mL of an aqueous mixture containing water, GPS, isopropyl alcohol, ATPLUS® 411F crop oil concentrate, and TRITON® X-155 surfactant in a 46:42:12:1.0:0.02 v/v ratio to obtain 1/2X, 1/4X, 1/8X and 1/16X rates of the high rate (X). Compound requirements are based upon a 12 mL application volume at a rate of 187 L/ha. Formulated compounds were applied to the plant material with an overhead Mandel track sprayer equipped with 8002E nozzles calibrated to deliver 187 L/ha over an application area of 0.503 square meters (m^2) at a spray height of 18 inches (43 cm) above the average plant canopy height. Control plants were sprayed in the same manner with the solvent blank. The treated plants and control plants were placed in a greenhouse as described above and watered by sub-irrigation to prevent wash-off of the test compounds. After 21 days, the condition of the test plants as compared with that of the control plants was determined visually and scored on a scale of 0 to 100 percent where 0 corresponds to no injury and 100 corresponds to complete kill, and results are listed in Table 1 along with active ingredients and their respective formulations. Each score in Table 1 represents an average obtained from results of three representative experiments.

Assay [4] deals with AAD1 GLXMA (HT variety soybean). Kind of assay: Greenhouse evaluation of broadleaf volunteer crop control, AAD1 soybean. The following applies: 2 to 3 leaf stage, after 21 days, 0 no injury, 100 complete kill. As for the experimental part:
as §1, §2

The subject of assay [5] is AAD12 GLXMA (HT variety soybean). Kind of assay: Greenhouse evaluation of broadleaf volunteer crop control, AAD12 soybean. As to conditions: 2 to 3 leaf stage, after 21 days, 0 no injury, 100 complete kill. How it is done: as §1, §2
Assay [6] concerns RoundUp Ready GLXMA (HT variety soybean). Kind of assay: Greenhouse evaluation of broadleaf volunteer crop control, RoundUp ready soybean. As to conditions: Glycine max, 504 h, greenhouse, 2 to 3 leaf stage, after 21 days, 0 no injury, 100 complete kill, read-out: Average Percent Crop Control after Treatment, RoundUp Ready GLXMA. As for the experimental part:
as §1, §2
(§3) Additional formulations with different 6-arylpicolinates were tested in the greenhouse on Maverick and RoundUp-ready soybean crops using the procedure described above. Each score in Table 2 represents an average obtained from results of three representative experiments.

Assay [7] has as its system Maverick GLXMA (conventional soybean). Nature of the assay: Greenhouse evaluation of broadleaf volunteer crop control, Maverick soybean. The following applies: Glycine max, 504 h, read-out: Average Percent Crop Control after Treatment, Maverick GLXMA. As for the experimental part: as §1, §2, §3

Read-outs that look alike come from different tables or passages of the source.

Consider `C#CCN1C(=O)COc2cc(F)c(N3C(=O)C4=C(CCCC4)C3=O)cc21` [Flumioxazin], for which the “% Crop Control” value in assay [1] (25 g ai/Ha) amounted to 0%.

Regarding `COc1nc(C)nc(=NC(=O)NS(=O)(=O)c2ccccc2C(=O)O)[nH]1` [Metsulfuron], the “% Crop Control” value in assay [2] (6 g ai/Ha + 1% J'Oil) was determined as 96%; in assay [2] (6 g ai/Ha) it was 89.3%; in assay [1] (6 g ai/Ha), 98.3%.

Regarding `COc1cc(OC)n2nc(NS(=O)(=O)c3c(C(F)(F)F)ccnc3OC)nc2n1` [Pyroxsulam], the “% Crop Control” value in assay [1] (18 g ai/Ha) is reported as 98.3%.

With `COc1c(Cl)ccc(-c2nc(C(=O)O)c(Cl)c(N)c2F)c1F` [drawing 11], the “Average Percent Crop Control after Treatment, Resnick GLXMA” value in assay [3] (1.1 g ae/ha) came to 83%; in assay [3] (2.2 g ae/ha) it was 92%; in assay [3] (4.4 g ae/ha) it was 100%; in assay [3] (8.75 g ae/ha) it was 100%; in assay [3] (17.5 g ae/ha), 100%. The “Average Percent Crop Control after Treatment, AAD1 GLXMA” value in assay [4] (2.2 g ae/ha) turned out to be 87%; in assay [4] (4.4 g ae/ha), 100%; in assay [4] (8.75 g ae/ha) it was 100%; in assay [4] (17.5 g ae/ha), 100%. Also, the “Average Percent Crop Control after Treatment, AAD12 GLXMA” value was found to be 85% in assay [5] (1.1 g ae/ha); 93% in assay [5] (2.2 g ae/ha); 100% in assay [5] (4.4 g ae/ha); 100% in assay [5] (8.75 g ae/ha); 100% in assay [5] (17.5 g ae/ha). Also, the pest or weed control at 2.2 g/ha is 83% in assay [6] (2.2 g ae/ha) and 95% in assay [7] (2.2 g ae/ha, greenhouse, 2 to 3 leaf stage, after 21 days, 0 no injury, 100 complete kill). The pest or weed control at 4.4 g/ha turned out to be 93% in assay [6] (4.4 g ae/ha) and 100% in assay [7] (4.4 g ae/ha, greenhouse, 2 to 3 leaf stage, after 21 days, 0 no injury, 100 complete kill). The pest or weed control at 8.75 g/ha amounted to 100% in assay [6] (8.75 g ae/ha) and 100% in assay [7] (8.75 g ae/ha, greenhouse, 2 to 3 leaf stage, after 21 days, 0 no injury, 100 complete kill). Besides, the pest or weed control at 17.5 g/ha in assay [6] (17.5 g ae/ha) came out at 100%; in assay [7] (17.5 g ae/ha, greenhouse, 2 to 3 leaf stage, after 21 days, 0 no injury, 100 complete kill), 100%. Further, the pest or weed control at 1.1 g/ha in assay [7] (1.1 g ae/ha, greenhouse, 2 to 3 leaf stage, after 21 days, 0 no injury, 100 complete kill) is 87%.

As to `COc1nc(C)nc(NC(=O)NS(=O)(=O)c2cc(I)ccc2C(=O)O)n1` [Iodosulfuron], the “% Crop Control” value in assay [1] (3.5 g ai/Ha) amounted to 90%.

Regarding `COc1c(Cl)ccc(-c2cc(N)c(Cl)c(C(=O)O)n2)c1F` [Formula (IV)], in assay [1] (17 g ai/Ha), the “% Crop Control” value was found to be 93%. In assay [1] (RoundUp Ready soybeans), the “herbicidal activity in genetically engineered crops as compared to other commercially known herbicides” value is “comparable or superior”.

With `COc1c(Cl)ccc(-c2cc(N)c(Cl)c(C(=O)[O-])n2)c1F.[K+]` [drawing 12], the “Average Percent Crop Control after Treatment, Resnick GLXMA” value in assay [3] (1.1 g ae/ha) was 99%; in assay [3] (2.2 g ae/ha), 100%; in assay [3] (4.4 g ae/ha) it was 100%; in assay [3] (8.75 g ae/ha) it was 100%; in assay [3] (17.5 g ae/ha) it was 100%. Also, the “Average Percent Crop Control after Treatment, AAD1 GLXMA” value in assay [4] (1.1 g ae/ha), in assay [4] (2.2 g ae/ha), in assay [4] (4.4 g ae/ha), in assay [4] (8.75 g ae/ha) and in assay [4] (17.5 g ae/ha) was 100% throughout. In addition, the “Average Percent Crop Control after Treatment, AAD12 GLXMA” value in assay [5] (1.1 g ae/ha), in assay [5] (2.2 g ae/ha), in assay [5] (4.4 g ae/ha), in assay [5] (8.75 g ae/ha) and in assay [5] (17.5 g ae/ha) was 100% each time. Besides, in assay [7], the pest or weed control at 1.1 g/ha is 97%.

Consider `O=C(O)c1nc(Cl)ccc1Cl` [Clopyralid], for which the “% Crop Control” value in assay [1] (54 g ai/Ha) amounted to 93.8%.

On to `C[n+]1ccc(-c2cc[n+](C)cc2)cc1` [Paraquat], for which the “% Crop Control” value came out at 61.7% in assay [2] (300 g ai/Ha) and 85% in assay [1] (300 g ai/Ha).

With `Nc1c(Cl)c(F)nc(OCC(=O)O)c1Cl` [Fluroxypyr], in assay [1] (200 g ai/Ha), the “% Crop Control” value worked out at 100%.

`CNC.O=C(O)COc1ccc(Cl)cc1Cl` [2,4-D-dma]: the “% Crop Control” value in assay [1] (1300 g ai/Ha) is 97.3%.
